In one assay the test system is MCF-7 cells. In words: MTT cell viability assay, MCF-7. The assay is classed as cell-based, human. The conditions noted are these: Homo sapiens, MCF7, 48 h, read-out: Growth (%) MCF-7. As to the method:
(§1) The cell viability assay of each compound was carried out using the MTT assay. Each compound was dissolved in dimethyl sulfoxide (DMSO) at a concentration of 0.01 M. Serial dilutions were prepared with a non-supplemented culture medium. The effect of each compound on the cell viability was determined at two different concentrations (10 and 50 µM) in MCF-7, HTB-54, and HT-29 cells. In addition, the selected compounds were tested at six different concentrations between 0.1–100 µM in MCF-7, T47D, H1299, HTB-54, and 184B5 cells.
(§2) Briefly, 1 × 10^4 tumor cells/well or 2 × 10^4 non-tumorigenic cells/well were grown in 96-well plates for 12 h. Then, these cells were incubated with either DMSO (control) or a different concentration of each of the tested compounds for 48 h. Three hours before the termination point, 20 µL of MTT were added to measure the cellular viability. The resultant formazan crystals were dissolved in 50 µL of DMSO, and the absorbance was measured at 570 and 630 nm. The results are expressed as IC50, the half maximal inhibitory concentration. This value was calculated using OriginPro 8.5.1. software (OriginLab, Northampton, MA, USA) by nonlinear curve fitting. Furthermore, the selectivity index (SI) was calculated as the ratio of the IC50 values determined for the non-malignant and the tumor cells (IC50 (184B5)/IC50 (MCF-7). The data were obtained from at least three independent experiments performed in quadruplicates.

Another assay concerns HT-29 cells. In words: MTT cell viability assay, HT-29. The following applies: Homo sapiens, 48 h, read-out: Growth (%) HT-29. In kind it is cell-based. As for the experimental part:
as §1, §2

In a further assay the test system is HTB-54 cells. In words: MTT cell viability assay, HTB-54. In kind it is cell-based. The conditions noted are these: Homo sapiens, HTB-54, 48 h, read-out: Growth (%) HTB-54. As to the method:
as §1, §2
On the technique in general: Tetrazolium assays rely on reduction of a dye to a coloured formazan, in cell work by metabolically active cells.

As for `O=C(NC(=[Se])Nc1ccccc1)c1ccccc1` [Compound 1a], the values for the activity at 10 µM in the assay on MCF-7 cells, with HT-29 cells and in the assay on HTB-54 cells were 70.5%, 56.9% and 67.8%, respectively. For the same compound, the activity at 50 µM was 6.6% in the assay on MCF-7 cells, 23.4% with HT-29 cells and 57.1% with HTB-54 cells.
With `Cc1ccc(NC(=[Se])NC(=O)c2ccccc2)cc1` [Compound 1b], the figures for the activity at 10 µM in the assay with MCF-7 cells, with HT-29 cells and in the assay with HTB-54 cells were 64.2%, 60.4% and 75.8%, respectively. In addition, the activity at 50 µM in the assay with MCF-7 cells amounted to 12.6%; with HT-29 cells it was 28%; with HTB-54 cells, 61.1%.
Consider `O=C(NC(=[Se])Nc1ccc(C(F)(F)F)cc1)c1ccccc1` [Compound 1d], for which the activity at 10 µM in the assay on MCF-7 cells worked out at 73.6%; in the assay with HT-29 cells, 97.3%; in the assay with HTB-54 cells it was 84.9%. Moreover, the activity at 50 µM worked out at 21.9% in the assay on MCF-7 cells, 25.1% with HT-29 cells and 38.7% in the assay with HTB-54 cells.
Consider `Cc1ccc(NC(=[Se])NC(=O)c2ccccc2Cl)cc1` [Compound 2b], for which the activity at 10 µM came to 60.1% in the assay with MCF-7 cells, 80.2% in the assay on HT-29 cells and 87.9% in the assay on HTB-54 cells. Also, the activity at 50 µM turned out to be 24.7% in the assay with MCF-7 cells, 46.1% in the assay on HT-29 cells and 66.6% in the assay with HTB-54 cells.
As for `COc1ccc(NC(=[Se])NC(=O)c2ccccc2Cl)cc1` [Compound 2c], the figures for the activity at 10 µM in the assay with MCF-7 cells, with HT-29 cells and in the assay on HTB-54 cells were 62.6%, 76.3% and 84.9%, respectively. The values for the activity at 50 µM in the assay with MCF-7 cells, with HT-29 cells and in the assay with HTB-54 cells were 26.4%, 44.8% and 66.7%, respectively.
On to `O=C(NC(=[Se])Nc1ccc(C(F)(F)F)cc1)c1ccccc1Cl` [Compound 2d], for which the results for the activity at 10 µM in the assay on MCF-7 cells, in the assay with HT-29 cells and in the assay with HTB-54 cells were 94.2%, 87.1% and 100%, respectively. For the same compound, the figures for the activity at 50 µM with MCF-7 cells, with HT-29 cells and in the assay with HTB-54 cells were 10.4%, 51.7% and 37.6%, respectively.
Turning to `O=C(NC(=[Se])Nc1ccc(Cl)cc1)c1ccccc1Cl` [Compound 2e], the activity at 10 µM in the assay on MCF-7 cells came to 118%; in the assay on HT-29 cells, 77.8%; with HTB-54 cells, 96.7%. Besides, the activity at 50 µM is 16% in the assay with MCF-7 cells, 57.9% with HT-29 cells and 18.6% in the assay with HTB-54 cells.
Regarding `CSc1ccc(Cl)c(C(=O)NC(=[Se])Nc2ccccc2)c1` [Compound 3a], the activity at 10 µM worked out at 84.1% in the assay on MCF-7 cells, 71.1% with HT-29 cells and 88.8% in the assay with HTB-54 cells. Moreover, the activity at 50 µM is 23.1% in the assay with MCF-7 cells, 42.7% in the assay with HT-29 cells and 49.9% with HTB-54 cells.
On to `COc1ccc(NC(=[Se])NC(=O)c2cc(SC)ccc2Cl)cc1` [Compound 3c], for which the activity at 10 µM is 73.9% in the assay on MCF-7 cells, 67.9% in the assay with HT-29 cells and 79% with HTB-54 cells. Besides, the activity at 50 µM in the assay on MCF-7 cells worked out at 23.7%; in the assay with HT-29 cells it was 44.4%; with HTB-54 cells it was 27.6%.
With `CSc1ccc(Cl)c(C(=O)NC(=[Se])Nc2ccc(Cl)cc2)c1` [Compound 3e], the activity at 10 µM in the assay on MCF-7 cells stood at 105%; in the assay on HT-29 cells, 76.6%; with HTB-54 cells it was 79.4%. The activity at 50 µM was 32.4% in the assay on MCF-7 cells, 73% in the assay on HT-29 cells and 35.8% in the assay with HTB-54 cells.
With `O=C(NC(=[Se])Nc1ccccc1)c1cccnc1Cl` [Compound 4a], the activity at 10 µM came out at 68.8% in the assay on MCF-7 cells, 99.1% with HT-29 cells and 83.1% in the assay on HTB-54 cells. The activity at 50 µM in the assay with MCF-7 cells is 29.3%; in the assay on HT-29 cells, 34.1%; in the assay with HTB-54 cells, 67.6%.
With `Cc1ccc(NC(=[Se])NC(=O)c2cccnc2Cl)cc1` [Compound 4b], the activity at 10 µM in the assay on MCF-7 cells was 77.6%; with HT-29 cells it was 99.2%; in the assay on HTB-54 cells, 87%. Besides, the activity at 50 µM in the assay with MCF-7 cells was determined as 32.4%; in the assay on HT-29 cells it was 51.7%; with HTB-54 cells it was 64.8%.
As to `COc1ccc(NC(=[Se])NC(=O)c2cccnc2Cl)cc1` [Compound 4c], the activity at 10 µM came out at 86.6% in the assay with MCF-7 cells, 99.1% in the assay on HT-29 cells and 88.9% in the assay with HTB-54 cells. Moreover, the values for the activity at 50 µM in the assay on MCF-7 cells, with HT-29 cells and in the assay with HTB-54 cells were 33%, 51.6% and 68.5%, respectively.
Regarding `O=C(NC(=[Se])Nc1ccc(C(F)(F)F)cc1)c1cccnc1Cl` [Compound 4d], the results for the activity at 10 µM in the assay with MCF-7 cells, in the assay on HT-29 cells and with HTB-54 cells were 67.1%, 103% and 90.5%, respectively. The activity at 50 µM in the assay on MCF-7 cells stood at 48.9%; in the assay with HT-29 cells it was 62.2%; in the assay with HTB-54 cells it was 62.2%.
Consider `O=C(NC(=[Se])Nc1ccc(Cl)cc1)c1cccnc1Cl` [Compound 4e], for which the activity at 10 µM is 90.6% in the assay on MCF-7 cells, 93.4% in the assay with HT-29 cells and 92.1% in the assay on HTB-54 cells. In addition, the activity at 50 µM came out at 60.2% with MCF-7 cells, 67% in the assay with HT-29 cells and 63.5% with HTB-54 cells.
As to `O=C(NC(=[Se])Nc1ccccc1)c1cccs1` [Compound 5a], the activity at 10 µM came out at 70.3% in the assay on MCF-7 cells, 73.5% in the assay with HT-29 cells and 76.8% with HTB-54 cells. In addition, the figures for the activity at 50 µM in the assay with MCF-7 cells, in the assay with HT-29 cells and in the assay with HTB-54 cells were 27.4%, 39% and 43.7%, respectively.
Regarding `Cc1ccc(NC(=[Se])NC(=O)c2cccs2)cc1` [Compound 5b], the activity at 10 µM came to 64.2% in the assay with MCF-7 cells, 82.8% with HT-29 cells and 66.8% in the assay with HTB-54 cells. Also, the results for the activity at 50 µM with MCF-7 cells, in the assay with HT-29 cells and with HTB-54 cells were 17.5%, 36.8% and 66.7%, respectively.
With `COc1ccc(NC(=[Se])NC(=O)c2cccs2)cc1` [Compound 5c], the activity at 10 µM in the assay on MCF-7 cells is 90.7%; in the assay on HT-29 cells, 57.5%; with HTB-54 cells, 85%. Also, the activity at 50 µM in the assay with MCF-7 cells came to 11.8%; with HT-29 cells, 34.6%; with HTB-54 cells, 60.2%.
`O=C(NC(=[Se])Nc1ccc(Cl)cc1)c1cccs1` [Compound 5e]: the results for the activity at 10 µM with MCF-7 cells, with HT-29 cells and with HTB-54 cells were 77.6%, 78.1% and 73.2%, respectively. Further, the activity at 50 µM in the assay with MCF-7 cells came out at 20.8%; with HT-29 cells, 37.8%; in the assay with HTB-54 cells, 58.1%.
On to `Cc1ccc(NC(=[Se])NC(=O)c2ccco2)cc1` [Compound 6b], for which the activity at 10 µM in the assay with MCF-7 cells amounted to 64.9%; with HT-29 cells, 87.6%; in the assay on HTB-54 cells, 73%. The activity at 50 µM in the assay on MCF-7 cells came to 5.8%; in the assay with HT-29 cells, 48.4%; with HTB-54 cells, 1.6%.
`COc1ccc(NC(=[Se])NC(=O)c2ccco2)cc1` [Compound 6c]: the activity at 10 µM in the assay on MCF-7 cells was determined as 70%; in the assay with HT-29 cells, 74.5%; in the assay with HTB-54 cells it was 74.2%. Moreover, the activity at 50 µM was 13.1% in the assay with MCF-7 cells, 35.9% in the assay with HT-29 cells and 3.8% in the assay on HTB-54 cells.
For the compound `O=C(NC(=[Se])Nc1ccc(C(F)(F)F)cc1)c1ccco1` [Compound 6d], the activity at 10 µM amounted to 71.7% with MCF-7 cells, 81.5% with HT-29 cells and 59.4% in the assay with HTB-54 cells. Also, the figures for the activity at 50 µM with MCF-7 cells, in the assay with HT-29 cells and in the assay with HTB-54 cells were 11.9%, 18.7% and 4.6%, respectively.
In the case of `O=C(NC(=[Se])Nc1ccc(Cl)cc1)c1ccco1` [Compound 6e], the activity at 10 µM in the assay on MCF-7 cells stood at 62.7%; with HT-29 cells, 75.2%; with HTB-54 cells it was 84.1%. In addition, the activity at 50 µM in the assay with MCF-7 cells was determined as 11.2%; with HT-29 cells, 31.1%; in the assay with HTB-54 cells, 4%.
Regarding `COc1ccc(NC(=[Se])NC(=O)C23CC4CC(CC(C4)C2)C3)cc1` [Compound 7c], the activity at 10 µM worked out at 91.8% in the assay on MCF-7 cells, 59.6% in the assay with HT-29 cells and 98.4% with HTB-54 cells. For the same compound, the values for the activity at 50 µM with MCF-7 cells, in the assay on HT-29 cells and in the assay with HTB-54 cells were 24.3%, 34% and 48.3%, respectively.
In the case of `O=C(NC(=[Se])Nc1ccc(C(F)(F)F)cc1)C12CC3CC(CC(C3)C1)C2` [Compound 7d], the activity at 10 µM in the assay with MCF-7 cells came out at 87.9%; with HT-29 cells it was 49.5%; with HTB-54 cells it was 92.9%. For the same compound, the activity at 50 µM in the assay with MCF-7 cells was determined as 25.3%; in the assay with HT-29 cells, 29.6%; in the assay with HTB-54 cells, 79.8%.
With `O=C(NC(=[Se])Nc1ccc(Cl)cc1)C12CC3CC(CC(C3)C1)C2` [Compound 7e], the activity at 10 µM worked out at 83.9% with MCF-7 cells, 53.5% in the assay with HT-29 cells and 111% with HTB-54 cells. Also, the activity at 50 µM in the assay with MCF-7 cells came to 39%; in the assay on HT-29 cells, 45.9%; with HTB-54 cells, 36.4%.

The values are drawn from article PMC7023466, “Novel N,N′-Disubstituted Acylselenoureas as Potential Antioxidant and Cytotoxic Agents” (Antioxidants, 2020).
